Results published in US7402606B2, “Derivatives of 1-(oxoaminoacetyl) pentylcarbamate as cathepsin K inhibitors for the treatment of bone loss” (SmithKline Beecham Corporation, priority 2002, dated 2008).

Target: T1, human cathepsin K (Homo sapiens, UniProt P43235)
T1 construct: The proform of cathepsin K was converted to mature cathepsin K by brief exposure to pH 4; made in house; host or cells: baculovirus; Trichoplusia ni High Five cells (virus raised in Sf-9)
T1 sequence (P43235 115-329): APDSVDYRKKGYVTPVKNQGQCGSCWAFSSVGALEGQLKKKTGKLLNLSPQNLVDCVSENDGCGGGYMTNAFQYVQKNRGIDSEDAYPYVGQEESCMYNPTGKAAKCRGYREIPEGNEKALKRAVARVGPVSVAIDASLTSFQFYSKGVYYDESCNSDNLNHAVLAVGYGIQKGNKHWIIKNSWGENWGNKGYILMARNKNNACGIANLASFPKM
Assay: Cathepsin K inhibition assay, human recombinant enzyme, fluorogenic substrate Cbz-Phe-Arg-AMC
Assay type: biochemical
Conditions: Table 1, human cathepsin K; read-out: h Cat K IC50
Method in brief: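 Recombinant human cathepsin K (baculovirus/insect-cell proform, activated at pH 4 with 5 mM L-cysteine) assayed with 10 μM Cbz-Phe-Arg-AMC, 10% DMSO, 30 °C.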

- IC50: 10 to 100 nM
Structure (SMILES): CCCCC(NC(=O)O[C@@H]1CN(C(=O)Cc2cccnc2)CC1(C)C)C(=O)C(=O)N[C@H](C)c1ccccc1 (stereo partly drawn) [Example 33, (3S)-4,4-Dimethyl-1-(3-pyridinylacetyl)pyrrolidinyl 1-(oxo{[(1R)-1-phenylethyl]amino}acetyl)pentylcarbamate]
